# Test results from patent US12091410B2, “Heterocyclic compound” (Takeda Pharmaceutical Company Limited, priority 2018, dated 2024).
# Target: T1, human orexin type 2 receptor (Homo sapiens, UniProt O43614)
# T1 construct: expressed in transfected cells
# T1 sequence (O43614 1-444): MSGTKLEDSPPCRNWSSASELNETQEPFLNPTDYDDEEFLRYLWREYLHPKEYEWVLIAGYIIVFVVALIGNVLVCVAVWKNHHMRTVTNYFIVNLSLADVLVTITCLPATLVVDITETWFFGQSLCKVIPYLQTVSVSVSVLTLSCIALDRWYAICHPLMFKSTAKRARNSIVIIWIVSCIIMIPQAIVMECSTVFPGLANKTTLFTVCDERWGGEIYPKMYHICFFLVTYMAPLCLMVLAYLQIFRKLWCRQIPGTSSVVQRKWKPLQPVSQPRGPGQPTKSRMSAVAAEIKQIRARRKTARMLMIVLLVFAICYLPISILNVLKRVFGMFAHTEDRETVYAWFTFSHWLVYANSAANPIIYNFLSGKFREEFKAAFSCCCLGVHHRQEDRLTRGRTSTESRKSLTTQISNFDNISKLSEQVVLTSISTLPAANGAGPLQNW
# Assay: Measurement of orexin type 2 receptor agonist activity (calcium fluorescence, Fluo-4 AM, CHO cells forcibly expressing human OX2 receptor)
# Assay type: cell-based
# Conditions: test compound 3 μM, DMSO = 0%, orexin A (human) 10 nM = 100%
# Source text: To obtain a cell clone stably expressing human orexin type 2 receptor, human orexin type 2 receptor cDNA was inserted into pcDNA3.1(+) plasmid vector (Invitrogen), and a plasmid DNA for expression of human orexin type 2 receptor (pcDNA3.1(+)/hOX2R) was cloned. The plasmid DNA was introduced into CHO-dhfr cell by an electroporation method, and human orexin type 2 receptor expressing clone cells were obtained by limiting dilution method by using G418 drug resistance as a selection marker.
# CHO cells forcibly expressing human OX2 receptor were seeded in each well of 384 well black transparent bottom plate (BD Falcon) at 7,500 cells/well, and cultured for one day in a 5% CO2 incubator at 37° C. After removal of the medium in the cell plate, assay buffer A containing a calcium indicator (HBSS (Thermo Fisher Scientific), 20 mM HEPES (Thermo Fisher Scientific), 0.1% BSA (Sigma-Aldrich), 2.5 μg/mL Fluo-4 AM (DOJINDO Chemical), 0.08% Pluronic F127 (DOJINDO Chemical), 1.25 mM probenecid (DOJINDO Chemical)) was added at 30 μL/well. The plate was stood for 30 min in a 5% CO2 incubator at 37° C., and further stood at room temperature for 30 min. A test compound prepared by diluting with assay buffer B (HBSS, 20 mM HEPES, 0.1% BSA) was added at 10 μL/well, and the fluorescence value was measured by FDSSpCELL (Hamamatsu Photonics K. K.) every one sec for 1 min, and thereafter every two sec for 1 min 40 sec. The activity (%) of the test compound was calculated assuming that variation in the fluorescence value when DMSO was added instead of the test compound was 0%, and variation in the fluorescence value when orexin A (human) (PEPTIDE INSTITUTE, INC.) was added at the final concentration of 10 nM was 100%.
row,SMILES,"OX2R agonist activity (3 μM, %) [%]"
1,"Cc1cc2n(n1)C(CO[C@H]1CC[C@@H](c3ccccc3)CC1)C(NS(C)(=O)=O)CC2 (mixture of isomers) [Example 1, rac-N-[(6S,7R)-2-methyl-7-({[(1s,4S)-4-phenylcyclohexyl]oxy}methyl)-4,5,6,7-tetrahydropyrazolo[1,5-a]pyridin-6-yl]methanesulfonamide]",104
2,"CCc1cc2n(n1)C(CO[C@H]1CC[C@@H](c3ccccc3)CC1)C(NS(C)(=O)=O)CC2 (mixture of isomers) [Example 2, rac-N-[(6S,7R)-2-ethyl-7-({[(1s,4S)-4-phenylcyclohexyl]oxy}methyl)-4,5,6,7-tetrahydropyrazolo[1,5-a]pyridin-6-yl]methanesulfonamide]",107
3,"Cc1cc2n(n1)[C@@H](COC1CCN(c3ncccn3)CC1)[C@@H](NS(C)(=O)=O)CC2 (racemic) [Example 3, rac-N-[(6S,7R)-2-methyl-7-({[1-(pyrimidin-2-yl)piperidin-4-yl]oxy}methyl)-4,5,6,7-tetrahydropyrazolo[1,5-a]pyridin-6-yl]methanesulfonamide]",82
4,"Cc1cc2n(n1)[C@@H](COC1CCN(c3ncc(F)cn3)CC1)[C@@H](NS(C)(=O)=O)CC2 (racemic) [Example 4, rac-N-[(6S,7R)-7-({[1-(5-fluoropyrimidin-2-yl)piperidin-4-yl]oxy}methyl)-2-methyl-4,5,6,7-tetrahydropyrazolo[1,5-a]pyridin-6-yl]methanesulfonamide]",98
5,"Cc1nc2n(n1)C(CO[C@H]1CC[C@@H](c3ccccc3)CC1)C(NS(C)(=O)=O)CC2 (mixture of isomers) [Example 5, rac-N-[(5R,6S)-2-methyl-5-({[(1s,4S)-4-phenylcyclohexyl]oxy}methyl)-5,6,7,8-tetrahydro[1,2,4]triazolo[1,5-a]pyridin-6-yl]methanesulfonamide]",99
6,"CS(=O)(=O)NC1CCc2ncnn2C1CO[C@H]1CC[C@@H](c2ccccc2)CC1 (mixture of isomers) [Example 6, rac-N-[(5R,6S)-5-({[(1s,4S)-4-phenylcyclohexyl]oxy}methyl)-5,6,7,8-tetrahydro[1,2,4]triazolo[1,5-a]pyridin-6-yl]methanesulfonamide]",85
7,"Cc1cc2n(n1)[C@@H](Cc1cccc(-c3ccccc3)c1)[C@@H](NS(C)(=O)=O)CC2 (racemic) [Example 7, rac-N-{(6S,7S)-7-[([1,1′-biphenyl]-3-yl)methyl]-2-methyl-4,5,6,7-tetrahydropyrazolo[1,5-a]pyridin-6-yl}methanesulfonamide]",77
8,"CCc1cc2n(n1)[C@@H](Cc1cccc(-c3ccccc3)c1)[C@@H](NS(C)(=O)=O)CC2 (racemic) [Example 8, rac-N-{(6S,7S)-7-[([1,1′-biphenyl]-3-yl)methyl]-2-ethyl-4,5,6,7-tetrahydropyrazolo[1,5-a]pyridin-6-yl}methanesulfonamide]",92
9,"CS(=O)(=O)N[C@H]1CCc2ccnn2[C@H]1COC1CCN(c2ncc(F)cn2)CC1 (racemic) [Example 9, rac-N-[(6S,7R)-7-({[1-(5-fluoropyrimidin-2-yl)piperidin-4-yl]oxy}methyl)-4,5,6,7-tetrahydropyrazolo[1,5-a]pyridin-6-yl]methanesulfonamide]",85
10,"Cc1nnn2c1CC[C@H](NS(C)(=O)=O)[C@@H]2COC1CCN(c2ncc(F)cn2)CC1 (racemic) [Example 10, rac-N-[(6S,7R)-7-({[1-(5-fluoropyrimidin-2-yl)piperidin-4-yl]oxy}methyl)-3-methyl-4,5,6,7-tetrahydro[1,2,3]triazolo[1,5-a]pyridin-6-yl]methanesulfonamide]",69
11,"Cc1nn2c(c1C)CC[C@H](NS(C)(=O)=O)[C@@H]2COC1CCN(c2ncc(F)cn2)CC1 (racemic) [Example 12, rac-N-[(6S,7R)-7-({[1-(5-fluoropyrimidin-2-yl)piperidin-4-yl]oxy}methyl)-2,3-dimethyl-4,5,6,7-tetrahydropyrazolo[1,5-a]pyridin-6-yl]methanesulfonamide]",102
